Data: publication PMC6255783, “A biophysical study on the mechanism of interactions of DOX or PTX with α-lactalbumin as a delivery carrier” (Scientific Reports, 2018)

Target: T1, α-Lac (α-lactalbumin) (Bos taurus, UniProt P00711)
T1 construct: gene LALBA; native mature protein from bovine milk, type III, calcium depleted (apo form, EDTA buffer); signal peptide absent
T1 sequence (P00711 20-142): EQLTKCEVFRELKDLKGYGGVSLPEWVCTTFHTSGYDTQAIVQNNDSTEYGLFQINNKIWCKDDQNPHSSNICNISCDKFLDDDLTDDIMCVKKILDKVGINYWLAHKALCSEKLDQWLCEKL
Experiment: isothermal titration calorimetry
Format: binding
Details: 20 mM Tris pH 7, 25 °C, 3.5 mM EDTA (apo form), unreliable (authors urge care: no clear pre- or post-transition, heat does not level off)
Source text: isothermal titration calorimetry on α-Lac (α-lactalbumin)

Row | K (M^-1) (n = 0.9) | K (M^-1) (up to 3% ethanol, n = 1.8) | Structure (SMILES)
1 | (6.7 ± 1.61) × 10^3 M^-1 |  | COc1cccc2c1C(=O)c1c(O)c3c(c(O)c1C2=O)C[C@@](O)(C(=O)CO)C[C@@H]3O[C@H]1C[C@H](N)[C@H](O)[C@H](C)O1 [DOX, doxorubicin]
2 |  | (14 ± 4.82) × 10^3 M^-1 | CC(=O)O[C@H]1C(=O)[C@@]2(C)[C@H]([C@H](OC(=O)c3ccccc3)[C@]3(O)C[C@H](OC(=O)[C@H](O)[C@@H](NC(=O)c4ccccc4)c4ccccc4)C(C)=C1C3(C)C)[C@]1(OC(C)=O)CO[C@@H]1C[C@@H]2O [PTX, paclitaxel]
